Source: patent publication US6277886A (priority 1996, dated 2001)
Where “and” joins values, the source holds several entries; their conditions need not be identical. Equal values may be shown once. Read-outs that look alike come from different tables or passages of the source.

Key:
[1] = for Weight: 2 mg/kg/day oral
Description: (§1) Spontaneously hypertensive rats, three month-old, were used. […] Controls received an equivalent volume of tap water. Treatment lasted 14 days. During this period, systolic blood pressure was monitored on days 0, 4, 7 and 11, using a tail-cuff procedure. On day 14, systolic blood pressure was determined using the indwelling catheter procedure described in Example 7.
The rats used in Example 8 above, were additionally monitored for weight gain/loss as an additional marker for the rate of food consumption MAO inhibitors usually elevate central catechoiamines which may depress appetite.

[2] = tested on: male Wistar rats after middle cerebral artery occlusion (MCA-O)
Excerpt: In order to expose the left middle cerebral artery, a cut was made in the temporal muscle. The tip of the coronoid process of mandible was excised as well and removed with a fine rongeur. Craniectomy was made with a dental drill at the junction between the median wall and the roof of the inferotemporal fossa.
The dura matter was opened carefully using a 27 gauge needle. […] Following this, the temporalis muscle was sutured and laid over the craniectomy site. The skin was closed with a running 3-0 silk suture. […] The volume of brain tissue incurring damage following ischemia was determined.

[3] = tested on: SHR (Spontaneously Hypertensive Rats) rats; conditions: for Change in HR / Change in MBAP: 45-60 min
Description: (§2) A chronic indwelling catheter was implanted in the caudal artery under light anesthesia with averteen. The animals were allowed to recover and were tested 24 hours after implantation. The cathetar was connected to a Statham pressure transducer and blood pressure was recorded on a Grass multichannel Polygraph. During this period, the rat was kept in its home cage in order to minimize handling and undue manipulations known to affect blood pressure.
(§3) Two strains of rats were used: WKY rats and matching SHR (Spontaneously Hypertensive Rats) rats. WKY rats were from a local strain, weighing about 250 g each.
SHR rats were purchased from Charles River breeders, England. The animals were allowed to acclimatize and recover from the journey and were used at the age of three months, in order to match their WKY controls. SHR hypertension develops gradually from the age of one month to the age of three months. At this stage, blood pressure is already elevated above normotensive levels.
(§4) Blood pressure and heart rate were then monitored for the duration of 45-60 minutes.

[4] = tested on: pressor response to catecholamines in the cat; test: Pressor response to catecholamines in the anesthetized cat before and after S(-)PAI; format: in vivo; conditions: S(-)PAI 1 mg/kg i.v.
Description: (§5) Cats were anesthetized with i.v. nembutal 25 mg/kg. Anesthesia was maintained by additional injections of nembutal, 5 mg/kg, as needed. The femoral artery was cannulated and connected to a Statham pressure transducer for blood pressure recordings on a Grass multichannel Polygraph. The femoral vein was cannulated for i.v. injection of drugs.

mice after CHI = conditions: in words
Description: (§6) The procedure for closed head injury followed was as described for rats in Shohami et al. (J Neurotrauma (1993) 10(2) 109-119) with changes as described.
(§7) Animals: Male Sabra mice (Hebrew University strain) weighing 34-40 g were used. They were housed in groups of 10 per cage, in a 12 hr:12 hr. light:dark cycle. Food and water were provided ad libitium.
(§8) Trauma was induced under anaesthesia. A longitudinal incision was performed in the skin covering the skull and the skin retracted to expose the skull. The head was fixed manually at the lower plane of the impact apparatus. A weight of 333 g was delivered by an electric device from a distance of 3 cm to the left hemisphere, 1-2 mm lateral to the midline in the midcoronal plane.

MAO mediated effects = conditions: Examples 4-9; in words
[5] = tested on: injured mice after closed head injury (CHI); conditions: 1 mg/kg s.c. 15 min after CHI
Description: as §6, §7, §8
One point was awarded for the lack of a tested reflex or for the inability to perform the task outline in the Table. The maximal score that can be reached at 1 hour post-CHI is 25 points and at later times, 21 points. The difference in NSS at 1 hr. and at any other time reflects the spontaneous recovery, and is referred to as ΔNSS. A score of 15-19 at 1 hr denotes severe injury, 11-14 denotes moderate injury and less than 10 denotes mild injury.

WKY rats = conditions: for Change in HR / Change in MBAP: 45-60 min
Description: as §2, §3, §4

anesthetized cat = conditions: for Change in MABP / Change in PR: 45-60 min
Description: as §5

[6] = tested on: reserpine induced ptosis in rats; test: Reserpine-induced ptosis in rats; format: in vivo; conditions: for Mean score of reserpine-induced ptosis: reserpine 5 mg/kg i.p., 0-4 scale, 4 = eyes completely open, saline 0.86
Excerpt: Reserpine-induced ptosis and its reversal test. Reserpine causes depletion of catecholamine stores, especially norepinephrine. This effect in the live animal is manifested among other things, in ptosis. Drugs that can prevent or inhibit reserpine-induced ptosis act either directly as noradrenergic agonists, or indirectly by decreasing or preventing the metabolic elimination of endogenous norepinephrine. MAO inhibitors belong to the latter category.

SHR rats = conditions: for Change in Mean Systolic Blood Pressure / Change in Heart rate: 2 mg/kg p.o. daily
Description: as §1

C#CCN[C@H]1CCc2ccccc21 [S(-)PAI, S-(-)-N-propargyl-1-aminoindan]
Weight ([1]; day 0, tap water 317 ± 32.64): 294.13 ± 32.06 g
Weight ([1]; day 7, tap water 302.22 ± 35.17): 292.25 ± 28.47 g
Weight ([1]; day 14, tap water 312.89): 307.33 ± 24.13 g
body weight ([1]; 2 mg/kg/day, 14 days, in words): no effect on body weight
neurological severity score (NSS) and infarct volume versus saline-treated rats ([2]; in words): significantly lower
Mean NSS ± SEM after 24 hours ([2]; ip, 2 mg/kg): 6.5 ± 0.48
blood pressure and heart rate ([3]; acute oral, in words): no effect on either parameter in either strain of rats
Change in HR ([3]; dose 1, oral): -30 beats/min
Change in MBAP ([3]; dose 1, oral): -16 mmHg
Change in HR ([3]; dose 2, oral): 0 beats/min
Change in MBAP ([3]; dose 2, oral): -12 mmHg
Change in HR ([3]; dose 10, oral): 0 beats/min
Change in MBAP ([3]; dose 10, oral): 4 mmHg
Δ mean arterial pressure after S(-)PAI ([4]; challenge norepinephrine 0.02 μg/kg): 12 mmHg
Δ mean arterial pressure after S(-)PAI ([4]; challenge norepinephrine 0.05 μg/kg): 32 mmHg
Δ mean arterial pressure after S(-)PAI ([4]; challenge norepinephrine 0.10 μg/kg): 23 mmHg
Δ mean arterial pressure after S(-)PAI ([4]; challenge norepinephrine 0.20 μg/kg): 46 mmHg
Δ mean arterial pressure after S(-)PAI ([4]; challenge phenylephrine 0.20 μg/kg): 2 mmHg
Δ mean arterial pressure after S(-)PAI ([4]; challenge phenylephrine 0.50 μg/kg): 17 mmHg
Δ mean arterial pressure after S(-)PAI ([4]; challenge phenylephrine 1.0 μg/kg): 17 mmHg
Δ mean arterial pressure after S(-)PAI ([4]; challenge phenylephrine 2.0 μg/kg): 42 mmHg
Δ mean arterial pressure after S(-)PAI ([4]; challenge tyramine 2.0 μg/kg): 3 mmHg
Δ mean arterial pressure after S(-)PAI ([4]; challenge tyramine 5.0 μg/kg): 9 mmHg
Δ mean arterial pressure after S(-)PAI ([4]; challenge tyramine 10.0 μg/kg): 28 mmHg
Δ mean arterial pressure after S(-)PAI ([4]; challenge tyramine 20.0 μg/kg): 39 mmHg
potentiation of the pressor response ([4]; phenylephrine, tyramine, norepinephrine, in words): no significant potentiation of the pressor response
latency to find the platform, compared to saline treated controls (mice after CHI; FIG. 1, after CHI): reduction in latency
memory, compared to saline-treated mice (mice after CHI; after CHI): Memory is enhanced
effect on several MAO mediated effects (MAO mediated effects): minimal or no effect
Δ NSS, 24 hr post-CHI ([5]; saline 4.75 ± 0.17): 5.06 ± 0.25
Δ NSS, 7 days post-CHI ([5]; saline 5.83 ± 0.36): 7.19 ± 0.28
Δ NSS, 14 days post-CHI ([5]; saline 5.96 ± 0.4): 7.88 ± 0.36
blood pressure and heart rate (WKY rats; acute oral, in words): no effect on either parameter in either strain of rats
Change in HR (WKY rats; dose 5, oral): 0 beats/min
Change in MBAP (WKY rats; dose 5, oral): 0 mmHg
Change in HR (WKY rats; dose 10, oral): 0 beats/min
Change in MBAP (WKY rats; dose 10, oral): 0 mmHg
Change in HR (WKY rats; dose 20, oral): 0 beats/min
Change in MABP (anesthetized cat; dose 0.03, i.v.): 7 mmHg and 5 mmHg
Change in MABP (anesthetized cat; dose 0.1, i.v.): -12 mmHg
Change in PR (anesthetized cat; dose 0.1, i.v.): 0 beats/min
Change in MABP (anesthetized cat; dose 1.0, i.v.): 2 mmHg
Change in PR (anesthetized cat; dose 1.0, i.v.): -5 beats/min
mean arterial blood pressure (MABP) and heart rate (HR) (anesthetized cat; i.v., up to cumulative dose of 1 mg/kg, 45-60 minutes, in words): neither mean arterial blood pressure (MABP) nor heart rate (HR) were affected
Mean score of reserpine-induced ptosis ([6]; 5 mg/kg i.p.): 1.8
Mean score of reserpine-induced ptosis ([6]; 10 mg/kg i.p.): 2.5
Mean score of reserpine-induced ptosis ([6]; 20 mg/kg i.p.): 1.5
endogenous norepinephrine concentrations (inferred from ptosis scores) ([6]; in words): does not cause an increase in endogenous norepinephrine concentrations
Change in Mean Systolic Blood Pressure (SHR rats; day 0, tap water 169.55 ± 7.73): 166.88 ± 6.11 mmHg
Change in Heart rate (SHR rats; day 0, tap water 374.09 ± 7.17): 404.13 ± 32.86 beats/min
Change in Mean Systolic Blood Pressure (SHR rats; day 4, tap water 177.82 ± 9.08): 168.5 ± 12.8 mmHg
Change in Heart rate (SHR rats; day 4, tap water 403 ± 23.3): 394.5 ± 37.43 beats/min
Change in Mean Systolic Blood Pressure (SHR rats; day 7, tap water 177.67 ± 10.21): 172.13 ± 14.62 mmHg
Change in Heart rate (SHR rats; day 7, tap water 392.67 ± 24.66): 394.38 ± 24.47 beats/min
Change in Mean Systolic Blood Pressure (SHR rats; day 11, tap water 178 ± 8.65): 167.43 ± 14.23 mmHg
Change in Heart rate (SHR rats; day 11, tap water 371.25 ± 27.22): 408 ± 40.04 beats/min
intraindividual and interindividual profile of systolic blood pressure and heart rate (SHR rats; chronic oral 2 mg/kg/day, in words): no effect
